Test systems include UACC-257; DLD-1; HL-60; IGROV-1; DMS-114; K562; CAKI-1; SN12C; HCT-15; NCI-H460; RPMI-8226; SF-295; SW-620; NCI-H226; RXF 393; HCT-116; COLO 205; M19-MEL; NCI/ADR-RES; MDA-MB-231.
Holding throughout (assay): NCI-60 cell line screen, 48 h

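Five compound concentrations were applied to cells in 96-well plates for 48 hours; endpoints were derived by simple linear interpolation of the resulting dose-response curve. Here, GI50 denotes the concentration required for 50% inhibition of growth.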 Active and inactive are the calls of the source. No stated cut-off is given here; in the data, active = GI50 up to about 1.1 µM and inactive = higher.

Here are results for 13 compounds from ChEMBL document CHEMBL1201862, “PubChem BioAssay data set” (2004).

With `CC(=O)/C=C1\CC(=O)Nc2ccccc2N1`, the GI50 in the assay on UACC-257, in the assay on DLD-1, in the assay on HL-60, in the assay on IGROV-1, with DMS-114 and with K562 was > 100 µM (inactive) each time. For the same compound, the GI50 is > 100 µM (inactive) in the assay on CAKI-1; > 100 µM (inactive) in the assay on SN12C; greater than 100 µM with HCT-15; > 100 µM (inactive) in the assay with NCI-H460; > 100 µM (inactive) with RPMI-8226; > 100 µM (inactive) in the assay on SF-295. Further, the GI50 with SW-620, in the assay on NCI-H226, in the assay with RXF 393 and with HCT-116 was > 100 µM (inactive) each time.
In the case of `CCc1cccc(C(C)C)c1NC(=O)C(=O)C(C(=O)C(=O)OC)c1nc2ccccc2nc1O` (configuration not stated), the GI50 in the assay on UACC-257, in the assay with COLO 205, in the assay on HL-60, in the assay with IGROV-1, in the assay with M19-MEL and with DMS-114 was > 100 µM (inactive) each time. The GI50 was > 100 µM (inactive) with K562; > 100 µM (inactive) with CAKI-1; > 100 µM (inactive) in the assay with SN12C; greater than 100 µM in the assay on HCT-15; > 100 µM (inactive) with NCI-H460; > 100 µM (inactive) with RPMI-8226. The GI50 with SF-295, in the assay with SW-620, in the assay on NCI-H226, in the assay with RXF 393 and in the assay with HCT-116 was > 100 µM (inactive) in each case.
Turning to `COC(=O)/C(=C/c1ccc(OC)cc1)C(C(=O)O)=C1CCCC1`, the GI50 in the assay on UACC-257, with DLD-1, in the assay with COLO 205, with HL-60, with IGROV-1 and with M19-MEL was > 100 µM (inactive) in each case. Further, the GI50 was > 100 µM (inactive) with K562; > 100 µM (inactive) in the assay on CAKI-1; > 100 µM (inactive) in the assay on SN12C; greater than 100 µM in the assay with HCT-15; > 100 µM (inactive) in the assay with NCI-H460; > 100 µM (inactive) in the assay on RPMI-8226. The GI50 with SF-295, with SW-620, in the assay with NCI-H226, with RXF 393 and with HCT-116 was > 100 µM (inactive) in each case.
Regarding `Cc1ccc2c(c1)CNc1ccc(C)cc1CN2`, the GI50 in the assay on DLD-1, with COLO 205, in the assay on HL-60, in the assay on IGROV-1, in the assay with M19-MEL and in the assay on DMS-114 was > 100 µM (inactive) in each case. Moreover, the GI50 in the assay on K562 was > 100 µM (inactive); with CAKI-1 it was > 100 µM (inactive); in the assay with SN12C, > 100 µM (inactive); in the assay with HCT-15, greater than 100 µM; in the assay with NCI-H460, > 100 µM (inactive); in the assay on RPMI-8226 it was > 100 µM (inactive). In addition, the GI50 in the assay with SF-295, in the assay with SW-620, in the assay on NCI-H226 and with HCT-116 was > 100 µM (inactive) in each case.
For the compound `CCOc1ccc(NC(=O)CC#N)cc1`, the GI50 with UACC-257, with DLD-1, with COLO 205, in the assay on HL-60, in the assay on IGROV-1 and in the assay on M19-MEL was > 100 µM (inactive) in each case. Moreover, the GI50 in the assay with K562, with CAKI-1, in the assay with SN12C, in the assay on NCI-H460, in the assay with SF-295 and in the assay with SW-620 was > 100 µM (inactive) each time. The GI50 in the assay on NCI-H226, in the assay with RXF 393 and with HCT-116 was > 100 µM (inactive) each time.
For the compound `COC1=CC(=O)[C@H]2[C@H](C)C(c3ccccc3)[C@@]2(C)C1=O` (some centres not stated), the GI50 in the assay with DLD-1, with COLO 205, with HL-60, with IGROV-1, with M19-MEL and in the assay on K562 was > 100 µM (inactive) each time. For the same compound, the GI50 is > 100 µM (inactive) in the assay with CAKI-1; greater than 100 µM in the assay with HCT-15; > 100 µM (inactive) with NCI-H460; > 100 µM (inactive) with RPMI-8226; > 100 µM (inactive) in the assay on SF-295; > 100 µM (inactive) with SW-620. For the same compound, the GI50 in the assay with RXF 393 is > 100 µM (inactive).
As for `CCCCCCCCCCCCCCCCCCN(C)C(COC)COP(=O)([O-])OCC[N+](C)(C)C` (configuration not stated), the GI50 with UACC-257 was 14.6 µM (inactive); with DLD-1, 3.48 µM (inactive); with COLO 205, 1.58 µM (inactive); in the assay with HL-60 it was 1.48 µM (inactive); in the assay on NCI/ADR-RES it was 24.5 µM (inactive); in the assay with IGROV-1, 1.3 µM (inactive). Moreover, the GI50 in the assay on M19-MEL was 3.25 µM (inactive); in the assay on K562 it was 11.8 µM (inactive); in the assay with CAKI-1 it was 3.69 µM (inactive); in the assay with SN12C, 4.23 µM (inactive); in the assay with NCI-H460, 1.78 µM (inactive); in the assay on RPMI-8226, 1.83 µM (inactive). In addition, the GI50 in the assay with SF-295 is 2.56 µM (inactive); with SW-620, 6.47 µM (inactive); in the assay on NCI-H226 it was 3.58 µM (inactive); with RXF 393 it was 1.57 µM (inactive); in the assay on MDA-MB-231, 5.73 µM (inactive); in the assay on HCT-116 it was 4.68 µM (inactive).
`O=C1/C(=C/c2cc(O)c(O)c(O)c2)Oc2cc(O)cc(OC3OC(CO)C(O)C(O)C3O)c21` (configuration not stated): the GI50 is 18.7 µM (inactive) with DLD-1; 22.2 µM (inactive) with COLO 205; 15.6 µM (inactive) in the assay with HL-60; 36.2 µM (inactive) in the assay on IGROV-1; 18 µM (inactive) with M19-MEL; 25.2 µM (inactive) in the assay on DMS-114. The GI50 in the assay on K562 was 16.9 µM (inactive); with SN12C, 17.3 µM (inactive); in the assay on HCT-15 it was 22.4 µM; in the assay on NCI-H460, 13.9 µM (inactive); in the assay with RPMI-8226, 20.2 µM (inactive); in the assay with SF-295 it was 16.5 µM (inactive). Moreover, the GI50 is 24.1 µM (inactive) with SW-620 and 16.3 µM (inactive) in the assay with HCT-116.
In the case of `O=C(CC1(O)C(=O)Nc2ccc(Br)cc21)c1ccc(Cl)cc1` (configuration not stated), the GI50 was 30.2 µM (inactive) with UACC-257; 70.8 µM (inactive) with DLD-1; > 100 µM (inactive) in the assay on COLO 205; > 10 µM (inactive) with HL-60; > 100 µM (inactive) in the assay with IGROV-1; 58.7 µM (inactive) with K562. Also, the GI50 is 77.8 µM (inactive) in the assay with SN12C; greater than 100 µM in the assay with HCT-15; > 100 µM (inactive) in the assay with NCI-H460; 42.3 µM (inactive) in the assay on RPMI-8226; > 100 µM (inactive) in the assay with SF-295; 43.2 µM (inactive) in the assay with SW-620. In addition, the GI50 is > 100 µM (inactive) with NCI-H226, 52.2 µM (inactive) in the assay on RXF 393 and 44.4 µM (inactive) in the assay on HCT-116.
Take `Cc1cccc(C)c1NC(=O)/C(=N/NC(N)=S)C(C)C(=O)c1ccc(Cl)cc1` (configuration not stated): the GI50 in the assay with UACC-257 is > 100 µM (inactive); in the assay on DLD-1, > 100 µM (inactive); in the assay with COLO 205, > 100 µM (inactive); in the assay with HL-60, 93.8 µM (inactive); in the assay on IGROV-1 it was > 100 µM (inactive); with M19-MEL, > 100 µM (inactive). Also, the GI50 is > 100 µM (inactive) in the assay on DMS-114; > 100 µM (inactive) with K562; > 100 µM (inactive) in the assay on CAKI-1; > 100 µM (inactive) with SN12C; greater than 100 µM in the assay on HCT-15; > 100 µM (inactive) in the assay with NCI-H460. Also, the GI50 with RPMI-8226, with SF-295, in the assay with SW-620, with NCI-H226 and with HCT-116 was > 100 µM (inactive) throughout.
For the compound `C=CCc1cc(-c2cc(CC=C)c(O)c(CNCCCl)c2)cc(CNCCCl)c1O`, the GI50 in the assay with UACC-257 was 17.4 µM (inactive); with DLD-1, 21.5 µM (inactive); in the assay with COLO 205 it was 17.9 µM (inactive); in the assay on HL-60 it was 17.3 µM (inactive); with IGROV-1 it was 23.6 µM (inactive); with M19-MEL, 17.1 µM (inactive). Also, the GI50 is 21.1 µM (inactive) with DMS-114; 17.8 µM (inactive) with K562; 19.8 µM (inactive) with SN12C; 16.4 µM in the assay with HCT-15; 16.8 µM (inactive) with NCI-H460; 21.4 µM (inactive) in the assay with RPMI-8226. For the same compound, the GI50 in the assay on SF-295 is 17.5 µM (inactive); with SW-620 it was 20.8 µM (inactive); with NCI-H226, 18.3 µM (inactive); in the assay on HCT-116 it was 19.4 µM (inactive).
Regarding `CC1CC(C2=CC=CCS2)=Nc2ccccc2S1` (configuration not stated), the GI50 in the assay with UACC-257 was 12.3 µM (inactive); in the assay with DLD-1, 70 µM (inactive); with COLO 205 it was > 100 µM (inactive); in the assay on HL-60, > 100 µM (inactive); in the assay on IGROV-1 it was > 100 µM (inactive); with M19-MEL, > 100 µM (inactive). For the same compound, the GI50 in the assay with K562 is > 100 µM (inactive); in the assay with CAKI-1, > 100 µM (inactive); with SN12C, > 100 µM (inactive); in the assay on HCT-15 it was greater than 100 µM; in the assay on NCI-H460 it was > 100 µM (inactive); in the assay with RPMI-8226 it was 97.5 µM (inactive). The GI50 with SF-295 was > 100 µM (inactive); in the assay with SW-620, > 100 µM (inactive); in the assay on RXF 393, > 100 µM (inactive); in the assay on HCT-116, 84.9 µM (inactive).
Consider `COC(=O)c1cc(NC(=O)Cc2c[nH]c3ccccc23)cn1C`, for which the GI50 with UACC-257 is > 100 µM (inactive); in the assay with COLO 205, 82 µM (inactive); in the assay on HL-60, > 100 µM (inactive); in the assay on NCI/ADR-RES it was > 100 µM (inactive); in the assay with IGROV-1, 22.5 µM (inactive); with K562 it was 58.1 µM (inactive). For the same compound, the GI50 was > 100 µM (inactive) with CAKI-1; 42.9 µM (inactive) in the assay with SN12C; 62.5 µM with HCT-15; 70.5 µM (inactive) in the assay on NCI-H460; 21.3 µM (inactive) in the assay with RPMI-8226; > 100 µM (inactive) in the assay with SF-295. Further, the GI50 is > 100 µM (inactive) in the assay with SW-620; 21.7 µM (inactive) in the assay with NCI-H226; > 100 µM (inactive) in the assay with RXF 393; 27.4 µM (inactive) in the assay on MDA-MB-231; 71.4 µM (inactive) in the assay on HCT-116.
